These are literature values, as cited in patent US20210069110A1, “NON-AQUEOUS COMPOSITION HAVING DRUG CARRIED THEREIN, AND METHOD FOR PRODUCING SAME” (Techno Guard Co. Ltd., priority 2017, published 2021).

Each structure is given as a SMILES string.

The conditions of the data set: General Notice of Japanese Pharmacopoeia.
As for `CO[C@H]1C(=O)[C@]2(C)[C@@H](OC)C[C@H]3OC[C@@]3(OC(C)=O)[C@H]2[C@H](OC(=O)c2ccccc2)[C@]2(O)C[C@H](OC(=O)[C@H](O)[C@@H](NC(=O)OC(C)(C)C)c3ccccc3)C(C)=C1C2(C)C` [Cabazitaxel], the “Water solubility of drug (Expression in Japanese Pharmacopoeia)” value (shortened to “Water solubility of drug”) is “Practically insoluble”.

Regarding `CC(=O)O[C@@]12CO[C@@H]1C[C@H](O)[C@@]1(C)C(=O)[C@H](O)C3=C(C)[C@@H](OC(=O)[C@H](O)[C@@H](NC(=O)OC(C)(C)C)c4ccccc4)C[C@@](O)([C@@H](OC(=O)c4ccccc4)[C@H]21)C3(C)C` [Docetaxel], the “Water solubility of drug” value is “Practically insoluble”.

Turning to `CC(=O)O[C@H]1C(=O)[C@@]2(C)[C@H]([C@H](OC(=O)c3ccccc3)[C@]3(O)C[C@H](OC(=O)[C@H](O)[C@@H](NC(=O)c4ccccc4)c4ccccc4)C(C)=C1C3(C)C)[C@]1(OC(C)=O)CO[C@@H]1C[C@@H]2O` [Paclitaxel], the “Water solubility of drug” value is recorded as “Practically insoluble”.

In the case of `CCCCC[C@H](O)/C=C/[C@H]1[C@H](O)CC(=O)[C@@H]1CCCCCCC(=O)O` [Prostaglandin E1], the “Water solubility of drug” value is “Practically insoluble”.
